According to the supplement of paper PMC10307832:

Key:
Test in all cases: relative viability (nuclei count vs DMSO), 5 days (fraction); higher = more cells survive
XMD8-85 + Bortezomib = compound: CN1CCN(CC1)C2=CC(=C(C=C2)NC3=NC=C4C(=N3)N(C5=CC=CC=C5C(=O)N4C)C)OC [XMD8-85] + CC(C)C[C@H](NC(=O)[C@H](Cc1ccccc1)NC(=O)c1cnccn1)B(O)O [Bortezomib] (partner 0.002 µM)
How it was run: (§1)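 Relative viability divides the nuclei count in treated wells by that in vehicle wells. Lung cancer cell lines were seeded in 1536-well plates, dosed by pin tool the next day, and fixed and stained after 5 days in one step with final 0.05% Triton X-100, 1% formaldehyde and 1 ug/ml Hoechst. Dosing was a single drug or a fixed anchor-drug dose plus five library-drug doses (not always all listed) in √10 steps, and values are medians of duplicate plates imaged at 4×.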

XMD8-85 + Lapatinib = compound: CN1CCN(CC1)C2=CC(=C(C=C2)NC3=NC=C4C(=N3)N(C5=CC=CC=C5C(=O)N4C)C)OC [XMD8-85] + CS(=O)(=O)CCNCc1ccc(-c2ccc3ncnc(Nc4ccc(OCc5cccc(F)c5)c(Cl)c4)c3c2)o1 [Lapatinib] (partner 2 µM)
How it was run: as §1

XMD8-85 + Tozasertib = compound: CN1CCN(CC1)C2=CC(=C(C=C2)NC3=NC=C4C(=N3)N(C5=CC=CC=C5C(=O)N4C)C)OC [XMD8-85] + Cc1cc(Nc2cc(N3CCN(C)CC3)nc(Sc3ccc(NC(=O)C4CC4)cc3)n2)n[nH]1 [Tozasertib] (partner 0.1 µM)
How it was run: as §1

XMD8-85 + Olaparib = compound: CN1CCN(CC1)C2=CC(=C(C=C2)NC3=NC=C4C(=N3)N(C5=CC=CC=C5C(=O)N4C)C)OC [XMD8-85] + O=C(c1cc(Cc2n[nH]c(=O)c3ccccc23)ccc1F)N1CCN(C(=O)C2CC2)CC1 [Olaparib] (partner 8 µM)
How it was run: as §1

| Cell Line | relative viability (XMD8-85 + Bortezomib; first compound 0.08 µM) | relative viability (XMD8-85 + Bortezomib; first compound 0.253 µM) | relative viability (XMD8-85 + Bortezomib; first compound 0.8 µM) | relative viability (XMD8-85 + Bortezomib; first compound 2.53 µM) | relative viability (XMD8-85 + Bortezomib; first compound 8 µM) | relative viability (XMD8-85 + Lapatinib; first compound 0.08 µM) | relative viability (XMD8-85 + Lapatinib; first compound 0.253 µM) | relative viability (XMD8-85 + Lapatinib; first compound 0.8 µM) | relative viability (XMD8-85 + Lapatinib; first compound 2.53 µM) | relative viability (XMD8-85 + Lapatinib; first compound 8 µM) | relative viability (XMD8-85 + Tozasertib; first compound 0.08 µM) | relative viability (XMD8-85 + Tozasertib; first compound 0.253 µM) | relative viability (XMD8-85 + Tozasertib; first compound 0.8 µM) | relative viability (XMD8-85 + Tozasertib; first compound 2.53 µM) | relative viability (XMD8-85 + Tozasertib; first compound 8 µM) | relative viability (XMD8-85 + Olaparib; first compound 0.08 µM) | relative viability (XMD8-85 + Olaparib; first compound 0.253 µM) | relative viability (XMD8-85 + Olaparib; first compound 0.8 µM) | relative viability (XMD8-85 + Olaparib; first compound 2.53 µM) | relative viability (XMD8-85 + Olaparib; first compound 8 µM) |
| --- | --- | --- | --- | --- | --- | --- | --- | --- | --- | --- | --- | --- | --- | --- | --- | --- | --- | --- | --- | --- |
| HCC-44 | 0.938 | 0.911 | 0.816 | 0.962 | 0.679 | 0.942 | 0.884 | 1.1 | 1.06 | 0.959 | 0.802 | 0.898 | 1.15 | 0.51 | 0.356 | 0.991 | 0.955 | 0.946 | 0.996 | 0.849 |
| HCC-78 | 0.639 | 0.455 | 0.375 | 0.495 | 0.316 | 0.84 | – | 0.751 | 0.565 | 0.223 | 0.407 | 0.465 | 0.397 | 0.434 | 0.296 | 0.916 | 0.843 | 0.99 | 0.814 | 0.775 |
| HCC-366 | 0.91 | 0.815 | 1.08 | 1.1 | 1.09 | 0.94 | 1.12 | 1.09 | 0.994 | 1.06 | 0.138 | 0.128 | 0.0974 | 0.0608 | 0.0744 | 0.231 | 0.358 | 0.385 | – | 0.242 |
| HCC-827 | 1.16 | 1.1 | 1.05 | 0.978 | 1.02 | 0.185 | 0.192 | 0.175 | 0.195 | 0.193 | – | 0.437 | 0.642 | 0.387 | 0.365 | 0.67 | 0.714 | 0.684 | 0.739 | 0.701 |
| HOP-62 | 0.646 | 0.698 | 0.863 | 0.719 | 0.681 | 1.11 | 0.904 | 0.978 | 1.13 | 0.797 | 0.371 | 0.342 | 0.403 | 0.301 | 0.177 | 0.136 | 0.55 | 0.384 | 0.287 | 0.231 |
| IA-LM | 0.814 | – | 0.836 | – | 0.163 | 0.847 | 0.59 | 0.611 | 0.455 | 0.16 | – | – | – | – | – | 0.862 | 0.885 | 0.836 | 1.07 | 0.207 |
| LCLC-103H | 1.07 | 1.23 | 1.03 | 1.05 | 1.01 | – | – | – | – | – | 0.451 | 0.449 | 0.581 | 0.45 | 0.383 | 0.84 | 0.759 | 0.768 | 0.793 | 0.665 |
| LK-2 | – | – | – | – | – | 0.691 | 0.994 | 0.771 | 0.552 | 0.653 | – | 0.156 | 0.188 | 0.158 | 0.181 | 0.802 | 0.815 | 0.555 | 0.669 | 0.448 |
| NCI-H358 | – | – | – | – | – | 0.438 | 0.52 | 0.455 | 0.486 | 0.405 | 0.106 | 0.0979 | 0.119 | 0.11 | 0.0877 | 0.508 | 0.565 | 0.625 | 0.691 | 0.445 |
